{"source": "patent EP4782431A1", "about": "(Suzhou Merna Therapeutics Co. Ltd, priority 2023, dated 2025)", "key": {"THP-1 cells": {"test_system": "THP-1 cells", "assay": "m6A methylation level of THP-1 cells (LC-MS)", "type": "cell-based", "conditions": "24 hours", "description": "1*10^8 THP-1 cells were seeded in culture dishes, into which 4 nM and 400 nM compound of formula (I), 4 nM and 4 µM nicotinamide, and 5 µM m6A methyltransferase inhibitor UZH2 were added, respectively. The cells were cultured in an incubator containing 5% CO2 at 37°C for 24 hours. After discarding culture media and washing with PBS, the cells were centrifuged, and the supernatant was discarded. 400 µL of an RLT cell lysis buffer was added, and the cells were stored at -80°C. A portion of samples were selected, into which 400 µL of 70% ethanol was added and evenly stirred. 700 µL of a sample was transferred to an RNeasy centrifugation column and centrifuged for 15 seconds (8,000 g, 25°C). Then, 700 µL of an RW1 buffer solution was added and centrifuged for 15 seconds (8,000 g, 25°C), followed by the addition of 500 µL of an RPE buffer solution and centrifugation for 16 seconds (8,000 g, 25°C). The above steps were repeated twice, followed by centrifugation for 2 minutes to completely remove the eluent. 30 µL of nuclease-free water was added to a chromatographic column, and the cells were incubated for 5 minutes and then centrifuged for 2 minutes (12,000 g, 25°C). The steps were repeated 3 times. 2 µL of an RNA sample was selected and dissolved in 98 µL of a 10 mM Tris buffer solution, and the absorbance at 260 nm was measured using a Nanodrop to determine the RNA concentration.\n50 µg of total RNA was selected and dissolved in 100 µL of nuclease-free water. Oligo (dT) magnetic beads were resuspended, 50 µL of the magnetic beads were transferred to a 1.5 mL test tube, 500 µL of a binding buffer solution was added, the mixture was allowed to stand, and the supernatant was removed. 100 µL of an RNA sample was added to 200 µL of a magnetic bead suspension for mixing, the mixture was stirred and incubated in a Thermomixer at 25°C for 5 minutes, the supernatant was discarded, and then 200 µL of a washing buffer solution was added. The steps were repeated 2 times, and then centrifugation was performed for 10 seconds (2,000 g, 25°C). 50 µL of an elution buffer solution was added and evenly mixed, the mixture was heated to 75°C, the supernatant was transferred to a new 1.5 mL test tube and purified using an RNA Clean & Concentrator kit, and the RNA concentration was determined.\n20 µL (approximately 200 ng) of an mRNA sample and 20 µL of a Nuclease P1 digestion premix (including 0.5 µL of 2 unit/µL Nuclease P1, 0.4 µL of 5 M NaCl, 2 µL of 0.1 M ZnCl2, and 17.1 µL of PCR-grade water) were added into each test tube, and the mixture was stirred and incubated in a Thermomixer at 37°C for 2 hours. […] 20 µL of the supernatant was collected, an m6A methylation fragment was analyzed by LC-MS, and the m6A inhibition rate was calculated. […]"}, "[1]": {"test_system": "chemotherapeutic drug-induced mouse model with hand-foot syndrome", "assay": "chemotherapeutic drug-induced mouse model with hand-foot syndrome", "type": "in vivo, ICR mice", "conditions": "for infiltration of inflammatory cells / thickening of the epidermal layer and the stratum corneum in the skin tissues / swelling of the toes caused by the modeling drugs: capecitabine and docetaxel models; for infiltration of inflammatory cells / thickening of the epidermal layer and the stratum corneum in the skin tissues / expression level of cytokine IL-8 in the skin tissues of the hind limb toes of the mice / expression level of cytokine IL-6 in the skin tissues of the hind limb toes of the mice: 3% ointment topical or nicotinamide 100 mg/kg oral; for swelling of the toes caused by the modeling drugs: compound of formula (I) 3% ointment topical or nicotinamide 100 mg/kg oral, once daily 16 days; for expression level of cytokine IL-8 in the skin tissues of the hind limb toes of the mice: capecitabine model; for expression level of cytokine IL-6 in the skin tissues of the hind limb toes of the mice: docetaxel model", "from_the_text": "After adaptive feeding for 7 days, SPF-grade ICR mice (male, 5-6 weeks old, with a body weight of approximately 35 g) were randomly divided into groups, including a blank control group (6 mice), a capecitabine modeling group (6 mice), a docetaxel modeling group (6 mice), a capecitabine + compound of formula (I) group (6 mice), a docetaxel + compound of formula (I) group (6 mice), a capecitabine + nicotinamide group (6 mice), and a docetaxel + nicotinamide group (6 mice). The groups were respectively administered corresponding modeling drugs by oral gavage (capecitabine at 200 mg/kg and docetaxel at 25 mg/kg) once daily; and the blank control group was administered an equivalent volume of normal saline. After administration with the chemotherapeutic drugs for 2 weeks, the ointments containing the compound of formula (I) (at a compound content of 3%) used in Example 10 were respectively applied topically in the groups, or nicotinamide was orally administered (100 mg/kg) once daily continuously for 16 days.\nMeasurement of the degree of swelling of toes: The degree of swelling of hind limb toes of the mice was measured using a toe swelling tester (KW-7C, Nanjing Calvin Biotechnology Co., Ltd.) before administration with the modeling drugs, after administration with the modeling drugs for 2 weeks, and before sacrifice, respectively. Before measurement, ankle joints of hind feet of the mice were marked at same positions before administration, after administration for 2 weeks, and before sacrifice. During measurement, water was properly located at the same level as the marked positions, and numerical values were recorded after becoming stable.\nPathological staining of skin tissues: Skin tissue samples were selected from hind limb toes of the mice and placed in 4% paraformaldehyde for fixation at room temperature for 4 hours. Then, the tissues were taken out and rinsed with running water for several hours. The samples were subjected to dehydration treatment with 70%, 80%, and 90% ethanol solutions, followed by treatment with a mixed solution of equal amounts of absolute alcohol and xylene for 15 minutes, and then permeabilized twice with a xylene solution for 15 minutes each time until the samples became transparent. The samples were placed in a mixture of half xylene and half paraffin for soaking for 15 minutes, and then, paraffin I and paraffin II were added for wax penetration for one hour, respectively. After embedding with paraffin, the samples were sectioned, baked, dewaxed, and hydrated. Then, the hydrated sections were placed in a hematoxylin solution (ZSGB-BIO, article No. 23041001) for staining for 3 minutes, and a differentiation solution of hydrochloric acid in ethanol was added for differentiation for 15 seconds. After rinsing with water, a Scott bluing solution (Servicebio, article No. 20230801) was added for bluing for 15 seconds. After rinsing with running water, the sections were stained with an eosin solution (Solarbio, article No. 33535) for 3 minutes, rinsed with running water, dehydrated, permeabilized, sealed, and inspected under a microscope.\nImmunohistochemical staining: After baking, dewaxing, and hydration, paraffin sections of skin tissues of hind limb toes of the mice were subjected to antigen retrieval using a 0.2 M citric acid buffer solution (containing 1.534 g of citric acid, 3.1 g of sodium citrate, and 100 mL of distilled water, pH 4.7). Endogenous […] was removed using 3% hydrogen peroxide (Shandong Annjet High-Tech Disinfection Technology Co., Ltd., article No. 20290902), and the sections were incubated at room temperature for 10 minutes and then fully rinsed with a PBS buffer solution (containing 8 g of NaCl, 0.2 g of KCl, 1.44 g of Na2HPO4, and 1 M HCl, pH 7.4). The sections were permeabilized with 0.5% Triton-X-100 (AmyJet Scientific, article No. A-CSH436-100 mL), respectively permeabilized with mouse anti-IL-1β and rabbit IL-8 for 10 minutes, and not permeabilized with rabbit anti-IL-6. […]"}}}
{"molecule": "NC(=O)[C@H]1CCCc2c1[nH]c1ccc(Cl)cc21", "note": "[Compound of formula (I), (S)-6-chloro-2,3,4,9-tetrahydro-1H-carbazole-carboxamide]", "values": [{"measurement": "m6A methylation level of mRNA of the cells", "setting": "THP-1 cells; 4 nM and 400 nM, concentration-dependent", "value": "significantly inhibit"}, {"measurement": "m6A inhibition activity", "setting": "THP-1 cells; 400 nM", "value": "comparable to that of the m6A methyltransferase inhibitor UZH2 at a concentration of 5 µM"}, {"measurement": "infiltration of inflammatory cells", "setting": "[1]", "value": "no infiltration of inflammatory cells observed"}, {"measurement": "thickening of the epidermal layer and the stratum corneum in the skin tissues", "setting": "[1]", "value": "effectively alleviate"}, {"measurement": "swelling of the toes caused by the modeling drugs", "setting": "[1]", "value": "significantly alleviate"}, {"measurement": "expression level of cytokine IL-8 in the skin tissues of the hind limb toes of the mice", "setting": "[1]", "value": "significantly decrease"}, {"measurement": "expression level of cytokine IL-6 in the skin tissues of the hind limb toes of the mice", "setting": "[1]", "value": "significantly decrease"}]}
{"molecule": "NC(=O)c1cccnc1", "note": "[Nicotinamide, nicotinamide]", "values": [{"measurement": "inhibitory effect on the m6A methylation level of mRNA of the cells", "setting": "THP-1 cells; high concentration (4 µM)", "value": "no inhibitory effect"}, {"measurement": "inhibitory effect on the m6A methylation level of mRNA of the cells", "setting": "THP-1 cells; low concentration (4 nM)", "value": "no inhibitory effect"}, {"measurement": "infiltration of inflammatory cells", "setting": "[1]", "value": "infiltration of inflammatory cells still observed"}, {"measurement": "thickening of the epidermal layer and the stratum corneum in the skin tissues", "setting": "[1]", "value": "mildly alleviated"}, {"measurement": "swelling of the toes caused by the modeling drugs", "setting": "[1]", "value": "not observed that oral administration of nicotinamide at 100 mg/kg significantly alleviated the swelling"}, {"measurement": "expression level of cytokine IL-8 in the skin tissues of the hind limb toes of the mice", "setting": "[1]", "value": "didn't have a significant impact"}, {"measurement": "expression level of cytokine IL-6 in the skin tissues of the hind limb toes of the mice", "setting": "[1]", "value": "didn't have a significant impact"}]}
